In PMC9026428, “New Peptide Based Fluconazole Conjugates with Expanded Molecular Targets” (Pharmaceutics, 2022):
In brackets after ≈: the same amount, converted by molar mass. Non-standard residues stand in square brackets, D forms with d. Residues, ends and D or L forms follow the SMILES beside them. Nle = CCCC[C@H](N)C(=O)O

Legend:
[1] = system: C. glabrata DSM 11226; conditions: C. glabrata DSM 11226, RPMI-1640, 200 – 0.4 μg/mL range
Procedure: (§1) The selective activities of the FLC-conjugates were calculated according to the following formula
(§2) (1 picture or pasted object on this page, not shown here)

[2] = system: C. albicans SC5314; conditions: C. albicans SC5314, RPMI-1640, 200 – 0.4 μg/mL range
Procedure: as §1, §2

[3] = system: C. albicans ATCC 10231; conditions: C. albicans ATCC 10231, RPMI-1640, 200 – 0.4 μg/mL range
Procedure: as §1, §2

[4] = system: C. albicans opt1-opt5Δptr2Δptr22Δ; conditions: RPMI-1640, 200 – 0.4 μg/mL range
Procedure: as §1, §2

[5] = system: C. krusei DSM 6128; conditions: C. krusei DSM 6128, RPMI-1640, 200 – 0.4 μg/mL range
Procedure: as §1, §2

[6] = system: C. tropicalis (clinical); conditions: RPMI-1640, 200 – 0.4 μg/mL range
Procedure: as §1, §2

[7] = system: C. parapsilosis DSM 5784; conditions: C. parapsilosis DSM 5784, RPMI-1640, 200 – 0.4 μg/mL range
Procedure: as §1, §2

Row | SMILES | MIC50 [1] [µg/mL] | MIC90 [1] [µg/mL] | MIC50 [2] [µg/mL] | MIC90 [2] [µg/mL] | MIC50 [3] [µg/mL] | MIC90 [3] [µg/mL] | MIC50 [4] [µg/mL] | MIC90 [4] [µg/mL] | MIC50 [5] [µg/mL] | MIC90 [5] [µg/mL] | MIC50 [6] [µg/mL] | MIC90 [6] [µg/mL] | MIC50 [7] [µg/mL] | MIC90 [7] [µg/mL]
1 | CC[C@H](C)[C@H](NC(=O)[C@H](CCCCN)NC(=O)[C@H](CCCCN)NC(=O)[C@H](C)NC(=O)[C@H](CC(C)C)NC(=O)[C@H](C)NC(=O)[C@H](C)NC(=O)[C@H](CC(C)C)NC(=O)[C@H](C)NC(=O)[C@H](CCCCN)NC(=O)[C@H](CC(C)C)NC(=O)[C@H](CC(N)=O)NC(=O)[C@@H](NC(=O)[C@H](CCCCN)NC(=O)CNC(=O)[C@H](CC(C)C)NC(=O)[C@H](CC(C)C)NC(=O)[C@H](Cc1ccc(O)cc1)NC(=O)CNC(=O)[C@H](C)N)[C@@H](C)CC)C(=O)N[C@@H](CC(C)C)C(N)=O [TP10-NH2] | 200 (≈ 91.7 µM) | 200 (≈ 91.7 µM) | 50 (≈ 22.9 µM) | 50 (≈ 22.9 µM) | 200 (≈ 91.7 µM) | 200 (≈ 91.7 µM) | 25 (≈ 11.5 µM) | 25 (≈ 11.5 µM) | 50 (≈ 22.9 µM) | 50 (≈ 22.9 µM) | – | – | – | –
2 | CCCC[C@H](NC(=O)[C@H](CCCNC(=N)N)NC(=O)[C@H](Cc1c[nH]c2ccccc12)NC(=O)[C@H](CCC(N)=O)NC(=O)[C@H](Cc1c[nH]c2ccccc12)NC(=O)[C@H](CCCNC(=N)N)NC(=O)[C@H](CCCNC(=N)N)NC(=O)[C@H](CS)NC(=O)[C@H](CCCCN)NC(=O)[C@H](Cc1ccccc1)NC(=O)[C@@H](N)CCCC)C(=O)N[C@@H](CCCCN)C(=O)N[C@@H](CCCCN)C(=O)N[C@@H](CC(C)C)C(=O)NCC(N)=O [LFacinB[Nle^1,11]-NH2] (H-[Nle]FKCRRWQWR[Nle]KKLG-NH2; N-terminus assumed) | > 100 | > 100 | – | – | > 100 | > 100 | – | – | 100 (≈ 49.6 µM) | 100 (≈ 49.6 µM) | 50 (≈ 24.8 µM) | > 100 | > 100 | > 100
